According to patent US10934297B2, “5-heteroaryl substituted indazole-3-carboxamides and preparation and use thereof” (Samumed, LLC, priority 2018, dated 2021):
Like-named read-outs stand apart in the source and are kept apart here.

What was measured:
GSK3β kinase = GSK3β kinase (Homo sapiens (Human), UniProt P49841); experiment: GSK3β kinase assay (Ser/Thr 09 peptide Z-lyte FRET); format: biochemical; details: read-out: EC50 (method: IC50)
In short: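 Non-radioactive Z-lyte FRET read-out, kinase activity expressed as coumarin/fluorescein emission ratio. Compounds incubated with the reaction mixture one hour at room temperature in duplicate, then development buffer added for another hour. IC50 from non-linear regression of dose-response curves.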

IL-6 = IL-6 inhibition in LPS-stimulated human peripheral blood mononuclear cells (HTRF); format: cell-based; details: for EC50: huPBMCs, LPS 50 ng/mL, 22 hours, IL-6 HTRF; for inhibition at 10 µM: read-out: percent inhibition at 10 μM
In short: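 HTRF 665/620 nm ratio, read after 3 h antibody incubation at room temperature, quantified IL-6 released by fresh human PBMCs (1×10e6 cells/mL, 1% FBS-RPMI). The cells got compound, then 50 ng/mL LPS at 2 h, followed by a further 22 h at 37° C. EC50 came from DMSO-normalized readings run in duplicate.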

[1] = system: primary human mesenchymal stem cells (hMSCs); experiment: Tenocyte differentiation assay (SCXA-positive cells) in hMSCs; format: cell-based; details: for percent in parentheses under EC50 >100: given for EC50 >100 μM, meaning not defined in this example; for EC50: hMSCs, 4 days, SCXA positive cells
Excerpt: Representative compounds were screened using primary human mesenchymal stem cells (hMSCs) to determine their ability to induce tenocyte differentiation (process by which tendon is developed).
Primary human mesenchymal stem cells (hMSCs) were purchased from Lonza (Walkersville, Md.) and expanded in Mesenchymal Stem Cell Growth Media (Lonza). Cells between passage 3 and 6 were used for the experiments.
Cells were fixed using 4% formaldehyde (Electron Microscopy Sciences), and stained with anti-Sclerasis (anti-SCXA) antibodies (Abgent, San Diego, Calif.) [Webb S., et.al., Retinoic acid receptor signaling preserves tendon stem cell characteristics and prevents spontaneous differentiation in vitro, Stem Cell Research & Therapy 2016, 7:45] overnight at 4° C. […] Number of cells positive for SCXA in each well was quantified using the CellInsight CX5. Data was normalized to the average of 12 DMSO treated wells on the same plate using Dotmatics Studies module. The normalized averages (fold change over DMSO) of 3 replicate wells for each compound concentration were calculated. Due to solubility limitations of some of the compounds, values for higher doses were manually corrected and curve fitting and EC50 determinations were performed using Dotmatics Studies.

[2] = system: SW480 colon carcinoma cells; experiment: Cell viability assay (CellTiter-Glo) in SW480 colon carcinoma cells; format: cell-based, human; details: four days
In short: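 Viability was taken from CellTiter-Glo ATP luminescence, read about 12 min after reagent addition, relative to DMSO controls. The cells were Sp5-Luc reporter SW480 colon carcinoma cells, 2,000/well in 1% FBS DMEM, exposed to compound for four days at 37 °C.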

[3] = system: Wnt activity (Sp5-Luc reporter in SW480 cells); experiment: Screening assay for Wnt activity: Sp5-Luc reporter gene assay in SW480 colon carcinoma cells; format: cell-based, human; details: 36 to 48 hours
In short: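 EC50 values come from a variable-slope four-parameter fit of luminescence normalized to DMSO-only wells. The read-out follows 36–48 h incubation at 37 °C, 5% CO2, in DMEM containing 1% fetal bovine serum. Cells are hygromycin-selected SW480 stably expressing firefly luciferase under a Wnt-responsive Sp5 promoter (eight TCF/LEF sites).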

[4] = system: primary human fibroblasts derived from IPF patients (LL29 cells); experiment: Inhibition of the fibrotic process: αSMA staining in TGF-β1 treated LL29 fibroblasts; format: cell-based; details: LL29 cells, TGF-β1 20 ng/mL, 4 days, % αSMA positive cells
In short: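 LL29 fibroblasts from IPF patients, in F12 medium with 1% FBS, treated with TGF-β1 plus compound; TGF-β1 with DMSO as positive control, DMSO alone as negative control. After 4 days' incubation, SYTOX green nucleic acid stain added at 1 μM final, 30 min at room temperature.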

DYRK1A kinase = DYRK1A kinase (Homo sapiens (Human), UniProt Q13627); experiment: DYRK1A kinase assay (Ser/Thr 18 peptide Z-lyte FRET); format: biochemical; details: read-out: EC50 (method: IC50)
In short: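 Kinase reactions with compound ran 1 h at room temperature in duplicate, and development reagent was then added for another hour.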

[5] = recombinant GSK3β, 46 μM ATP, one hour, column head prints EC50
[6] = recombinant DYRK1A, 30 μM ATP, one hour, column head prints EC50

Sequence of GSK3β kinase (P49841 whole entry): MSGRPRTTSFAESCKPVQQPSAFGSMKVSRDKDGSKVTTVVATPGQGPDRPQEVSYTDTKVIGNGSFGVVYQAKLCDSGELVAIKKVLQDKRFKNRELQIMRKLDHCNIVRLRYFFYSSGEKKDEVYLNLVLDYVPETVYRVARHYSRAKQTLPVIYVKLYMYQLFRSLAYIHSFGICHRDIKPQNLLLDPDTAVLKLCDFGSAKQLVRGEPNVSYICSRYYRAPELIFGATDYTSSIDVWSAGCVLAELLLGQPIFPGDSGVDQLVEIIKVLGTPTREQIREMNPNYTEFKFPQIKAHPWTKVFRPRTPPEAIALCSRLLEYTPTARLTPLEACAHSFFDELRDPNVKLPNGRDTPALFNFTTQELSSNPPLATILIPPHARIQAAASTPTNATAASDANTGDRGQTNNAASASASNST

Molecule | IC50 (GSK3β kinase; [5]) | EC50 (IL-6) | EC50 [1] | EC50 [2] | EC50 [3] | IC50 (DYRK1A kinase; [6]) | IC50 (GSK3β kinase) | EC50 (IL-6; Homo sapiens, PBMC) | EC50 ([2]; Homo sapiens, 96 h) | EC50 ([3]; Homo sapiens) | IC50 (DYRK1A kinase) | percent in parentheses under EC50 >100 [1] | EC50 [4] | inhibition at 10 µM (IL-6; Homo sapiens, PBMC) | EC50 ([4]; Homo sapiens, Fibroblast, 96 h) | EC50 ([1]; Homo sapiens, Mesenchymal stem cells, 96 h)
5-(1,2-Dimethyl-1H-imidazol-5-yl)-N-(2-methylthiazol-5-yl)-1H-indazole-3-carboxamide [Compound 139] | 20 nM | 3.11 µM | > 100 µM | 473 nM | 335 nM | 4 nM | – | – | – | – | – | (21.2%) | 1240 nM | – | – | –
O=C(Nc1ccc(OC(F)F)nc1)c1n[nH]c2ccc(-c3cnn(C4CNC4)c3)cc12 [Compound 86, 5-(1-(Azetidin-3-yl)-1H-pyrazol-4-yl)-N-(6-(difluoromethoxy)pyridin-3-yl)-1H-indazole-3-carboxamide] | – | – | – | – | – | – | 354 nM | > 10 µM | > 10000 nM | 1840 nM | 98 nM | – | – | 14.8% | 1190 nM | –
O=C(Nc1ccc(OC(F)F)nc1)c1n[nH]c2ccc(-c3cnn(CCN4CCCC4)c3)cc12 [Compound 89, N-(6-(Difluoromethoxy)pyridin-3-yl)-5-(1-(2-(pyrrolidin-1-yl)ethyl)-1H-pyrazol-4-yl)-1H-indazole-3-carboxamide] | – | – | – | – | – | – | 656 nM | 6.59 µM | 4600 nM | 4340 nM | 304 nM | – | – | – | 1200 nM | –
O=C(Nc1ccc(OC(F)F)nc1)c1n[nH]c2ccc(-c3cnn(CCN4CCOCC4)c3)cc12 [Compound 90, N-(6-(Difluoromethoxy)pyridin-3-yl)-5-(1-(2-morpholinoethyl)-1H-pyrazol-4-yl)-1H-indazole-3-carboxamide] | – | – | – | – | – | – | 403 nM | > 10 µM | 7390 nM | 2130 nM | 329 nM | – | – | 37% | > 10000 nM | –
O=C(Nc1ccc(N2CCCC2)nc1)c1n[nH]c2ccc(-c3cnn(C4CC4)c3)cc12 [Compound 91, 5-(1-Cyclopropyl-1H-pyrazol-4-yl)-N-(6-(pyrrolidin-1-yl)pyridin-3-yl)-1H-indazole-3-carboxamide] | – | – | – | – | – | – | 332 nM | > 10 µM | 2100 nM | 1130 nM | 50 nM | – | – | 53.6% | 1490 nM | –
O=C(Nc1ccc(N2CCCC2)nc1)c1n[nH]c2cc(F)c(-c3cnn(C4CC4)c3)cc12 [Compound 92, 5-(1-Cyclopropyl-1H-pyrazol-4-yl)-6-fluoro-N-(6-(pyrrolidin-1-yl)pyridin-3-yl)-1H-indazole-3-carboxamide] | – | – | – | – | – | – | 699 nM | > 10 µM | > 10000 nM | 2310 nM | 39 nM | – | – | 0% | 313 nM | –
O=C(Nc1ccc(N2CCCC2)nc1)c1n[nH]c2ccc(-c3cnn(C4CCNCC4)c3)cc12 [Compound 93, 5-(1-(Piperidin-4-yl)-1H-pyrazol-4-yl)-N-(6-(pyrrolidin-1-yl)pyridin-3-yl)-1H-indazole-3-carboxamide] | – | – | – | – | – | – | 430 nM | > 10 µM | 823 nM | 1590 nM | 6 nM | – | – | 5.5% | 1200 nM | –
O=C(Nc1ccc(N2CCCC2)nc1)c1n[nH]c2cc(F)c(-c3cnn(C4CCNCC4)c3)cc12 [Compound 94, 6-Fluoro-5-(1-(piperidin-4-yl)-1H-pyrazol-4-yl)-N-(6-(pyrrolidin-1-yl)pyridin-3-yl)-1H-indazole-3-carboxamide] | – | – | – | – | – | – | 272 nM | > 10 µM | 732 nM | 798 nM | 4 nM | – | – | 5% | 1380 nM | –
CN1[C@@H]2CC[C@H]1CC(NC(=O)c1n[nH]c3ccc(-c4cnn(C)c4)cc13)C2 (stereo partly drawn) [Compound 146, 5-(1-Methyl-1H-pyrazol-4-yl)-N-((1R,5S)-8-methyl-8-azabicyclo [3.2.1]octan-3-yl)-1H-indazole-3-carboxamide] | – | – | – | – | – | – | – | > 10 µM | > 10000 nM | 1580 nM | – | (35.9%) | – | 4.7% | > 10000 nM | > 100 µM
N-(6-(Difluoromethoxy)pyridin-3-yl)-5-(1-(piperidin-4-yl)-1H-pyrazol-4-yl)-1H-indazole-3-carboxamide [Compound 87] | 182 nM | 3.85 µM | – | 554 nM | 216 nM | 8 nM | – | – | – | – | – | – | 672 nM | – | – | –

The next lines start with results.

IC50 (GSK3β kinase; [5]) | EC50 (IL-6) | EC50 [1] | EC50 [2] | EC50 [3] | IC50 (DYRK1A kinase; [6]) | IC50 (GSK3β kinase) | EC50 (IL-6; Homo sapiens, PBMC) | EC50 ([2]; Homo sapiens, 96 h) | EC50 ([3]; Homo sapiens) | IC50 (DYRK1A kinase) | Molecule | percent in parentheses under EC50 >100 [1] | EC50 [4] | inhibition at 10 µM (IL-6; Homo sapiens, PBMC) | EC50 ([4]; Homo sapiens, Fibroblast, 96 h) | EC50 ([1]; Homo sapiens, Mesenchymal stem cells, 96 h)
– | – | – | – | – | – | 21 nM | > 10 µM | 300 nM | 1340 nM | 2 nM | Cn1cc(-c2cc3c(C(=O)Nc4ccc5c(c4)CNC5)n[nH]c3cc2F)cn1 [Compound 84, 6-Fluoro-N-(isoindolin-5-yl)-5-(1-methyl-1H-pyrazol-4-yl)-1H-indazole-3-carboxamide] | – | – | 2.1% | 1690 nM | –
– | – | – | – | – | – | 35 nM | 2.99 µM | 203 nM | 566 nM | 2 nM | CN1Cc2ccc(NC(=O)c3n[nH]c4cc(F)c(-c5cnn(C)c5)cc34)cc2C1 [Compound 85, 6-Fluoro-5-(1-methyl-1H-pyrazol-4-yl)-N-(2-methylisoindolin-5-yl)-1H-indazole-3-carboxamide] | – | – | – | 904 nM | –
– | – | – | – | – | – | 46 nM | 1 µM | 286 nM | 175 nM | 1 nM | CN1CCN(c2ccc(NC(=O)c3n[nH]c4cc(F)c(-c5cnn(C)c5)cc34)cn2)CC1 [Compound 95, 6-Fluoro-5-(1-methyl-1H-pyrazol-4-yl)-N-(6-(4-methylpiperazin-1-yl)pyridin-3-yl)-1H-indazole-3-carboxamide] | – | – | – | 195 nM | –
– | – | – | – | – | – | 30 nM | 1.21 µM | 118 nM | 165 nM | 1 nM | CN1CCC(Oc2ccc(NC(=O)c3n[nH]c4cc(F)c(-c5cnn(C)c5)cc34)cn2)CC1 [Compound 96, 6-Fluoro-5-(1-methyl-1H-pyrazol-4-yl)-N-(6-((1-methylpiperidin-4-yl)oxy)pyridin-3-yl)-1H-indazole-3-carboxamide] | – | – | – | 367 nM | –
– | – | – | – | – | – | 98 nM | 2.27 µM | 354 nM | 269 nM | 2 nM | Cc1ncc(NC(=O)c2n[nH]c3ccc(-c4cnn(C5CCNCC5)c4)cc23)s1 [Compound 97, N-(2-Methylthiazol-5-yl)-5-(1-(piperidin-4-yl)-1H-pyrazol-4-yl)-1H-indazole-3-carboxamide] | – | – | – | 291 nM | –
– | – | – | – | – | – | 208 nM | 1.12 µM | 116 nM | 100 nM | 2 nM | Cc1ncc(NC(=O)c2n[nH]c3ccc(-c4cnn(C5CCN(C)CC5)c4)cc23)s1 [Compound 98, 5-(1-(1-Methylpiperidin-4-yl)-1H-pyrazol-4-yl)-N-(2-methylthiazol-5-yl)-1H-indazole-3-carboxamide] | – | – | – | 119 nM | –
– | – | – | – | – | – | 38 nM | 2.05 µM | 414 nM | 315 nM | 1 nM | Cn1cc(-c2cc3c(C(=O)Nc4ccc(OCCN5CCCC5)cc4)n[nH]c3cc2F)cn1 [Compound 155, 6-Fluoro-5-(1-methyl-1H-pyrazol-4-yl)-N-(4-(2-(pyrrolidin-1-yl)ethoxy)phenyl)-1H-indazole-3-carboxamide] | – | – | – | 167 nM | –
